Experiments:
[1] = tested on: Isolated rat hearts; test: Pre-ischemic cardiac function of isolated perfused rat hearts (Table 1); conditions: mean
Procedure: (§1) Isolated heart perfusion. Each animal was anesthetized with 1 g/kg urethane i.p. 10 min after heparin (2,500 U, i.m.) treatment. The chest was opened, and the heart was rapidly excised, placed in ice-cold buffer solution and weighed. Isolated rat hearts were attached to the perfusion apparatus and retrogradely perfused with oxygenated buffer solution at 37° C. The hearts were instrumented as previously described in Rastaldo et al., “P-450 metabolite of arachidonic acid mediates bradykinin-induced negative inotropic effect,” Am. J. Physiol., 280:H2823-H2832 (2001), and Paolocci et al. “cGMP-independent inotropic effects of nitric oxide and peroxynitrite donors: potential role for nitrosylation,” Am. J. Physiol., 279: H1982-H1988 (2000). The flow was maintained constant (9±2 mL/min/g wet weight) to reach a typical coronary perfusion pressure of 85-90 mm Hg. A constant proportion of 10% of the flow rate was applied by means of one of two perfusion pumps (Terumo, Tokyo, Japan) using a 50 mL syringe connected to the aortic cannula. Drug applications (see Experimental Protocols) were performed by switching from the syringe containing buffer alone to the syringe of the other pump containing the drug dissolved in the vehicle at a concentration 10× to the desired final concentration in the heart. A small hole in the left ventricular wall allowed drainage of the thebesian flow, and a polyvinyl-chloride balloon was placed into the left ventricle and connected to an electromanometer for recording of left ventricular pressure (LVP). The hearts were electrically paced at 280-300 bpm and kept in a temperature-controlled chamber (37° C.). Coronary perfusion pressure (CPP) and coronary flow were monitored with a second electromanometer and an electromagnetic flow-probe, respectively, both placed along the perfusion line. Left ventricular pressure, coronary flow and coronary perfusion pressure were recorded using a TEAC R-71 recorder, digitized at 1000 Hz and analyzed off-line with DataQ-Instruments/CODAS software, which allowed quantification of the maximum rate of increase of LVP during systole (dP/dtmax).
Hearts were perfused with Krebs-Henseleit solution gassed with 95% O2 and 5% CO2 of the following composition: 17.7 mM sodium bicarbonate, 127 mM NaCl, 5.1 mM KCl, 1.5 mM CaCl2, 1.26 mM MgCl2, 11 mM D-glucose, supplemented with 5 μg/mL lidocaine.
(§2) Experimental Protocols. Hearts were allowed to stabilize for 30 min, and baseline parameters were recorded. Typically, coronary flow was adjusted within the first 10 min and kept constant from thereon. After 30 min stabilization, hearts were randomly assigned to one of the treatment groups reported below (n=12 in each group), and then subjected to 30 min global, no-flow ischemia, followed by 30 min of reperfusion (I/R) (see FIG. 1). Pacing of the hearts was stopped at the beginning of the ischemic period and restarted after the third minute of reperfusion.
(§3) Hearts in the control group (Group 1) were perfused with buffer for an additional 29 min after stabilization. Group 2 hearts were exposed to AS (1 μM final concentration) for 19 min followed by a 10 min buffer wash-out period. Group 3 hearts were exposed to DEA/NO (0.5 μM final concentration) administered in the same manner as AS. The concentration of DEA/NO was only one half of that of AS since DEA/NO releases up to two moles of […] per mole of donor molecule. In Group 4, a train of three cycles of 3 min global ischemia followed by 5 min of reperfusion was applied after the stabilization phase, followed by a final 10 min buffer wash-out period (IPC protocol).
(§4) Group 5 hearts were exposed to the vehicle (NaOH, final concentration 100 nM) used to dissolve both AS and DEA/NO. To test the influence of switching the myocardial redox state on AS-induced effects, in an additional group of hearts (Group 6) AS was co-infused with N-acetyl-L-cysteine (NAC, 4 mM final concentration). For comparison, hearts were also exposed to NAC alone (Group 7). […]

[2] = tested on: Isolated rat hearts; test: Ventricular function (contracture, contractile recovery) of isolated rat hearts in 30 min global ischemia / 30 min reperfusion; conditions: for Maximal increment of LVEDP during reperfusion: compared to control, vehicle, NAC and NAC+AS treated hearts (p<0.05), FIG. 2B
Procedure: as §1, §2, §3
Group 5 hearts were exposed to the vehicle (NaOH, final concentration 100 nM) used to dissolve both AS and DEA/NO. […]

[3] = tested on: Isolated rat hearts; test: Myocardial injury: LDH release in coronary effluent during reperfusion; conditions: pre-treatment; control 686±14 U/g wet wt; FIG. 4A
Procedure: as §2
as §3, with “In Group 4, a train of three cycles of 3 min global ischemia followed by 5 min of reperfusion was applied after the stabilization phase, followed by a final 10 min buffer wash-out period (IPC protocol).” left out
Assessment of myocardial injury. […] LDH release was measured as previously described by Bergmeyer & Bernt, “Methods of Enzymatic Analysis,” Verlag Chemie (1974). Data are expressed as cumulative values for the entire reflow period.

[4] = tested on: Isolated rat hearts; test: Myocardial injury: infarct area by nitro blue tetrazolium staining
Procedure: as §2, §3, §4
To corroborate the data relative to myocardial injury, determined by LDH release, infarct areas were also assessed in a blinded fashion. […] The weight of the necrotic and non-necrotic tissues was then determined and the necrotic mass expressed as a percentage of total left ventricular mass.

[5] = Nitroxyl donation pH; format: physicochemical; conditions: donates from this pH to about 10
Excerpt: “Nitroxyl donation pH” is the pH at which and above which a nitroxyl-donating compound donates nitroxyl.
Further, compounds are easily tested for nitroxyl donation with routine experiments. Although it is impractical to directly measure whether nitroxyl is donated, several tests are accepted for determining whether a compound donates nitroxyl. For example, the compound of interest can be placed in solution, for example in water, in a sealed container. After sufficient time for disassociation has elapsed, such as from several minutes to several hours, the headspace gas is withdrawn and analyzed to determine its composition, such as by gas chromatography and/or mass spectroscopy. […] Nitroxyl donation also can be detected by exposing the target donor to metmyoglobin (Mb^3+). Nitroxyl reacts with Mb^3+ to form an Mb^2+-NO complex, which can be detected by changes in the ultraviolet/visible spectrum or by Electron Paramagnetic Resonance (EPR). […]
Testing for nitroxyl donation in some cases is performed at a range of pHs to determine the nitroxyl donation pH of the nitroxyl-donating compound. […] After the lowest pH at which nitroxyl donation occurs in a first set of tests is found, additional tests can be performed with narrower ranges of pH around the first determined nitroxyl donation pH to obtain a more specific nitroxyl donation pH. […]

[6] = tested on: anesthetized rabbits; conditions: administered during ischemia and 5 minutes prior to reperfusion; cited from earlier work
[7] = tested on: rat renal tissue; conditions: administered during ischemia and 5 minutes before reperfusion; rat kidney; cited from earlier work
[8] = tested on: Isolated rat hearts; test: Example 2: infarct size after ischemia/reperfusion, different set of isolated rat hearts; conditions: same protocol as AS in Example 1, only one rat heart per intervention, FIG. 5
Procedure: FIG. 5 is a graph showing infarct size following 30 min of global ischemia and 30 min reperfusion for interventions in a different set of isolated rat hearts for interventions with control; ischemic preconditioning (IP); IPA/NO; AS; and DEA/NO.
To corroborate the data relative to myocardial injury, determined by LDH release, infarct areas were also assessed in a blinded fashion. At the end of the course (30 min reperfusion), each heart was rapidly removed from the perfusion apparatus, and the LV dissected into 2-3 mm circumferential slices. Following 15 min of incubation at 37° C. in 0.1% solution of nitro blue tetrazolium in phosphate buffer as described in Ma et al., “Opposite effects of nitric oxide and nitroxyl on postischemic myocardial injury,” Proc. Natl. Acad. Sci., 96:14617-14622 (1999), unstained necrotic tissue was separated from the stained viable tissue. The areas of viable and necrotic tissue were carefully separate by and independent observer (D. Mancardi, C. Penna, or R. Rastaldo) who was not aware of the origin of the hearts. The weight of the necrotic and non-necrotic tissues was then determined and the necrotic mass expressed as a percentage of total left ventricular mass.
The same methods as employed in Example 1 were used to assess the ischemia/reperfusion injury reducing effects of the nitroxyl donor IPA/NO. […]

[9] = tested on: isolated rat heart; test: Example 2: coronary perfusion pressure during reperfusion; conditions: FIG. 6
Procedure: FIG. 6 is a graph showing the coronary perfusion pressures for the IPA/NO intervention of FIG. 5 and an intervention in an isolated rat heart with a vehicle for the same protocol as was used with AS and vehicle in FIG. 1. IPA/NO is represented by diamonds; vehicle is represented by squares.
Isolated heart perfusion. Each animal was anesthetized with 1 g/kg urethane i.p. 10 min after heparin (2,500 U, i.m.) treatment. The chest was opened, and the heart was rapidly excised, placed in ice-cold buffer solution and weighed. Isolated rat hearts were attached to the perfusion apparatus and retrogradely perfused with oxygenated buffer solution at 37° C. The hearts were instrumented as previously described in Rastaldo et al., “P-450 metabolite of arachidonic acid mediates bradykinin-induced negative inotropic effect,” Am. […] Coronary perfusion pressure (CPP) and coronary flow were monitored with a second electromanometer and an electromagnetic flow-probe, respectively, both placed along the perfusion line. Left ventricular pressure, coronary flow and coronary perfusion pressure were recorded using a TEAC R-71 recorder, digitized at 1000 Hz and analyzed off-line with DataQ-Instruments/CODAS software, which allowed quantification of the maximum rate of increase of LVP during systole (dP/dtmax). […]

[10] = End of stabilization period (baseline of the group, before treatment)
[11] = Post-treatment (pre-ischemic), AS 1 μM, DEA/NO 0.5 μM, NAC 4 mM, 19 min then 10 min wash-out

Structure (SMILES)	CPP (coronary perfusion pressure) [1, 10]	DP/dtmax [1, 10]	Developed LVP [1, 10]	LVEDP (left ventricular end-diastolic pressure) [1, 10]	CPP (coronary perfusion pressure) [1, 11]	DP/dtmax [1, 11]	Developed LVP [1, 11]	LVEDP (left ventricular end-diastolic pressure) [1, 11]	Maximal increment of LVEDP during reperfusion [2]	LDH release into the coronary venous effluent during reperfusion [3]	Nitroxyl donation pH (pH at and above which nitroxyl is donated) [5]	also measured
[Na+].[Na+].[O-][N+]([O-])=NO [AS, sodium trioxodinitrate]	89 mmHg	3145 mmHg/s	99 mmHg	9 mmHg	88 mmHg	3223 mmHg/s	98 mmHg	10 mmHg	significantly lower	significantly reduced	about 3	Post-ischemic recovery of developed LVP ([2]; 30 min ischemia, 30 min reperfusion, vs pre-ischemic value, controls 38%, AS 1 μM pre-ischemic, FIG. 3A): about 55%; Post-ischemic recovery of dP/dtmax ([2]; 30 min ischemia, 30 min reperfusion, vs pre-ischemic value, controls 39%, AS 1 μM pre-ischemic, FIG. 3B): 57%; Infarct size reduction compared to controls ([4]; AS 1 μM pre-ischemic, p<0.01 vs controls): 55%; Effect on myocardial ischemia/reperfusion injury [6]: increased myocardial ischemia/reperfusion injury; Effect on neutrophil infiltration into renal tissue [7]: contributed to neutrophil infiltration into the tissue
CCN(CC)/[N+]([O-])=N/O.CCNCC [DEA/NO, diethylamine diazeniumdiolate]	91 mmHg	3047 mmHg/s	98 mmHg	8 mmHg	90 mmHg	2976 mmHg/s	99 mmHg	9 mmHg	significantly lower	significantly reduced	–	Recovering contractile function (developed LVP, dP/dtmax) after ischemia/reperfusion ([2]; vs control group, p=0.08 for dP/dtmax, p=0.07 for developed LVP, DEA/NO 0.5 μM): less effective; Protective effect: infarct size change vs controls ([4]; DEA/NO 0.5 μM pre-ischemic, p<0.05 vs controls, weaker than AS or IPC): −30%
CC(C)N[N+]([O-])=N[O-].[Na+] [IPA/NO, isopropylamine/NO]	–	–	–	–	–	–	–	–	–	–	about 5.5	Infarct size reduction as compared to control [8]: about 36%; Coronary perfusion pressure during reperfusion [9]: returned to normal
CC(=O)N[C@@H](CS)C(=O)O [NAC, N-acetyl-L-cysteine]	88 mmHg	2760 mmHg/s	89 mmHg	8 mmHg	88 mmHg	2481 mmHg/s	86 mmHg	10 mmHg	–	–	–	Infarcted area, expressed as a percentage of the left ventricle ([4]; 30 min global ischemia, 30 min reperfusion, control 39±2%, FIG. 4): 45+2%
